The values below come from patent publication US6355799B1, “Substituted benzene compounds, process for their preparation, and herbicidal and defoliant compositions containing them” (ISK Americas Incorporated, priority 1997, dated 2002).

Type in all cases: in vivo
Assay [1] concerns barnyardgrass (Echinochloa crus-galli, ECHCG). Put plainly: Post-emerge test, greenhouse herbicide activity screening. Conditions: post-emerge; for pest or weed control at 63 g/ha / pest or weed control at 250 g/ha: Echinochloa crus-galli, post-emergence, 336 h, phytotoxicity rating 0-100 at 14 days after application, read-out: Post-emerge Herbicidal Activity ECHCG; for phytotoxicity rating ECHCG: 14 days after application, rating scale 0-100. The method in brief: (§1)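 Rating: 0–100 visual injury, 14 DAA. Application: acetone, 187 l/ha, 15–1000 g ai/ha, flat-fan track sprayer with nozzle 40–45 cm above soil or canopy. Post-emerge runs used 0.25% v/v surfactant on 2–3 leaf plants.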

The test system of assay [2] is lambsquarters (Chenopodium album, CHEAL). Described as above. Conditions: post-emerge; for pest or weed control at 63 g/ha / pest or weed control at 250 g/ha: Chenopodium album, post-emergence, 336 h, phytotoxicity rating 0-100 at 14 days after application, read-out: Post-emerge Herbicidal Activity CHEAL; for phytotoxicity rating CHEAL: 14 days after application, rating scale 0-100. In short, it runs like this:
as §1

Assay [3] deals with velvetleaf (Abutilon theophrasti, ABUTH). The description is as above. Conditions: post-emerge; for pest or weed control at 63 g/ha / pest or weed control at 250 g/ha: Abutilon theophrasti, post-emergence, 336 h, phytotoxicity rating 0-100 at 14 days after application, read-out: Post-emerge Herbicidal Activity ABUTH; for phytotoxicity rating ABUTH: 14 days after application, rating scale 0-100. In short, it runs like this: as §1

The subject of assay [4] is large crabgrass (Digitaria sanguinalis, DIGSA). The assay is described as above. Conditions: post-emerge; for pest or weed control at 63 g/ha / pest or weed control at 250 g/ha: Digitaria sanguinalis, post-emergence, 336 h, phytotoxicity rating 0-100 at 14 days after application, read-out: Post-emerge Herbicidal Activity DIGSA; for phytotoxicity rating DIGSA: 14 days after application, rating scale 0-100. In short, it runs like this: as §1

Assay [5] has as its system johnsongrass (Sorghum halepense, SORHA). The description is as above. The conditions noted are these: post-emerge; for pest or weed control at 63 g/ha / pest or weed control at 250 g/ha: Sorghum halepense, post-emergence, 336 h, phytotoxicity rating 0-100 at 14 days after application, read-out: Post-emerge Herbicidal Activity SORHA; for phytotoxicity rating SORHA: 14 days after application, rating scale 0-100. In short, it runs like this: as §1

The subject of assay [6] is redroot pigweed (Amaranthus retroflexus, AMARE). The description is as above. Conditions: post-emerge; for pest or weed control at 63 g/ha / pest or weed control at 250 g/ha: Amaranthus retroflexus, post-emergence, 336 h, phytotoxicity rating 0-100 at 14 days after application, read-out: Post-emerge Herbicidal Activity AMARE; for phytotoxicity rating AMARE: 14 days after application. The method in brief: as §1

Assay [7] relates to green foxtail (Setaria viridis, SETVI). The assay is described as above. The conditions noted are these: post-emerge; for pest or weed control at 63 g/ha / pest or weed control at 250 g/ha: Setaria viridis, post-emergence, 336 h, phytotoxicity rating 0-100 at 14 days after application, read-out: Post-emerge Herbicidal Activity SETVI; for phytotoxicity rating SETVI: 14 days after application, rating scale 0-100. The method in brief: as §1

The subject of assay [8] is sicklepod (Cassia obtusifolia, CASOB). The assay is described as above. The conditions noted are these: post-emerge; for pest or weed control at 63 g/ha / pest or weed control at 250 g/ha: Senna obtusifolia, post-emergence, 336 h, phytotoxicity rating 0-100 at 14 days after application, read-out: Post-emerge Herbicidal Activity CASOB; for phytotoxicity rating CASOB: 14 days after application, rating scale 0-100. In short, it runs like this:
as §1

Assay [9] has as its system ivyleaf morningglory (Ipomoea hederacea, IPOHE). The assay is described as above. The conditions noted are these: post-emerge; for pest or weed control at 63 g/ha / pest or weed control at 250 g/ha: Ipomoea, post-emergence, 336 h, phytotoxicity rating 0-100 at 14 days after application, read-out: Post-emerge Herbicidal Activity IPOHE; for phytotoxicity rating IPOHE: 14 days after application, rating scale 0-100. The method in brief:
as §1

Assay [10] has as its system velvetleaf (Abutilon theophrasti, ABUTH). Put plainly: Pre-emerge test, greenhouse herbicide activity screening. Conditions: Abutilon theophrasti, pre-emergence, 336 h, read-out: Pre-emerge Herbicidal Activity ABUTH. The method in brief: as §1
Assay [11] deals with redroot pigweed (Amaranthus retroflexus, AMARE). Described as above. The conditions noted are these: Amaranthus retroflexus, pre-emergence, 336 h, read-out: Pre-emerge Herbicidal Activity AMARE. The method in brief:
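Herbicidal damage is scored 0 (none) to 100 (complete plant death) two weeks after a simulated field spray. Rates span 15–1000 g ai/ha, delivered in acetone at 187 l/ha. For post-emergence treatments, plants have 2–3 leaves and the spray carries 0.25% v/v non-ionic surfactant.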

Setting [12] is: pre-emerge, rate 63 g ai/ha, phytotoxicity rating 0-100 at 14 days after application.
Setting [13] is: pre-emerge, rate 250 g ai/ha, phytotoxicity rating 0-100 at 14 days after application.
The mark [14] stands for this setting: 63 g ai/ha, phytotoxicity rating 0-100, 14 days after application.
The mark [15] stands for this setting: 250 g ai/ha, phytotoxicity rating 0-100, 14 days after application.

With `Cc1nn(-c2c(N)cc(Cl)cc2F)c(=O)n1C(F)F` [Compound 6-22], the pest or weed control at 63 g/ha worked out at 0% in assay [1] (63 g ai/ha); 50% in [2] (63 g ai/ha); 60% in assay [3] (63 g ai/ha); 0% in assay [4] (63 g ai/ha); 0% in assay [5] (63 g ai/ha); 70% in assay [6] (63 g ai/ha). Besides, the pest or weed control at 63 g/ha in assay [7] (63 g ai/ha) was found to be 0%; in [8] (63 g ai/ha) it was 0%; in [9] (63 g ai/ha), 20%; in [10] (setting [12]), 20%; in [11] (setting [12]) it was 30%. Further, the pest or weed control at 250 g/ha in assay [1] (250 g ai/ha) came to 0%; in [2] (250 g ai/ha) it was 70%; in [3] (250 g ai/ha), 80%; in [4] (250 g ai/ha) it was 0%; in [5] (250 g ai/ha), 0%; in [6] (250 g ai/ha), 100%. The pest or weed control at 250 g/ha in [7] (250 g ai/ha) is 0%; in assay [8] (250 g ai/ha), 0%; in assay [9] (250 g ai/ha) it was 70%; in [10] (setting [13]), 100%; in assay [11] (setting [13]), 100%.

Regarding `Nc1c(O)c(Cl)cc(F)c1N1C(=O)C2=C(CCCC2)C1=O` [Compound 8-2, 2-amino-6-chloro-4-fluoro-3-tetrahydrophthalimido)phenol], the pest or weed control at 63 g/ha in assay [1] (63 g ai/ha) stood at 20%; in assay [2] (63 g ai/ha) it was 40%; in assay [3] (63 g ai/ha) it was 100%; in [4] (63 g ai/ha), 30%; in assay [5] (63 g ai/ha), 10%; in assay [6] (63 g ai/ha), 95%. For the same compound, the pest or weed control at 63 g/ha amounted to 40% in [7] (63 g ai/ha); 50% in [8] (63 g ai/ha); 50% in assay [9] (63 g ai/ha); 80% in [10] (setting [12]); 90% in assay [11] (setting [12]). Moreover, the pest or weed control at 250 g/ha was 30% in assay [1] (250 g ai/ha); 80% in assay [2] (250 g ai/ha); 100% in assay [3] (250 g ai/ha); 30% in assay [4] (250 g ai/ha); 0% in [5] (250 g ai/ha); 100% in [6] (250 g ai/ha). Further, the pest or weed control at 250 g/ha was found to be 60% in assay [7] (250 g ai/ha); 30% in assay [8] (250 g ai/ha); 90% in assay [9] (250 g ai/ha); 100% in assay [10] (setting [13]); 100% in [11] (setting [13]).

Consider `COC(=O)Nc1c(OC)c(Cl)cc(F)c1-n1c(=O)cc(C(F)(F)F)n(C)c1=O` [Compound 4-1, 3-(4chloro-6-fluoro-3-methoxy-2-methoxycarbonylaminophenyl)-1-methyl-6-trifluoromethyl-2,4(1H, 3H)-pyrimidinedione], for which the “phytotoxicity rating ECHCG” value in assay [1] (63 g ai/ha) and in assay [1] (250 g ai/ha) was 0 in each case. Moreover, the “phytotoxicity rating CHEAL” value in assay [2] (63 g ai/ha) came out at 60; in assay [2] (250 g ai/ha) it was 98. Further, the “phytotoxicity rating ABUTH” value in [3] (63 g ai/ha) and in [3] (250 g ai/ha) was 100 in each case. Besides, the “phytotoxicity rating DIGSA” value in assay [4] (63 g ai/ha) and in [4] (250 g ai/ha) was 0 each time. The “phytotoxicity rating SORHA” value in assay [5] (63 g ai/ha) stood at 0; in [5] (250 g ai/ha), 20. Further, the “phytotoxicity rating AMARE” value in assay [6] (63 g ai/ha, rating scale 0-100 (0 no damage, 100 complete death)) is given as 50; in assay [6] (250 g ai/ha, rating scale 0-100) it was 95. Moreover, the “phytotoxicity rating SETVI” value in assay [7] (63 g ai/ha) is reported as 0; in assay [7] (250 g ai/ha) it was 10. The “phytotoxicity rating CASOB” value in assay [8] (63 g ai/ha) turned out to be 30; in [8] (250 g ai/ha), 50. Further, the “phytotoxicity rating IPOHE” value in assay [9] (63 g ai/ha) and in assay [9] (250 g ai/ha) was 100 in each case. Moreover, the pest or weed control at 63 g/ha in assay [10] (setting [14]) and in assay [11] (setting [14]) was 100% throughout. The pest or weed control at 250 g/ha in assay [10] (setting [15]) and in assay [11] (setting [15]) was 100% in each case.

For the compound `Cc1nn(-c2c(F)cc(Cl)cc2NC(=O)c2ccc3ccccc3c2)c(=O)n1C(F)F` [Compound 6-24], the pest or weed control at 63 g/ha in assay [1] (63 g ai/ha) came out at 0%; in assay [2] (63 g ai/ha), 30%; in assay [3] (63 g ai/ha), 20%; in assay [4] (63 g ai/ha), 0%; in [5] (63 g ai/ha), 0%; in assay [6] (63 g ai/ha) it was 0%. Also, the pest or weed control at 63 g/ha in assay [7] (63 g ai/ha) was determined as 0%; in [8] (63 g ai/ha), 0%; in assay [9] (63 g ai/ha), 0%; in assay [10] (setting [12]), 0%; in assay [11] (setting [12]), 20%. Moreover, the pest or weed control at 250 g/ha stood at 0% in assay [1] (250 g ai/ha); 90% in [2] (250 g ai/ha); 95% in assay [3] (250 g ai/ha); 0% in [4] (250 g ai/ha); 0% in assay [5] (250 g ai/ha); 80% in assay [6] (250 g ai/ha). In addition, the pest or weed control at 250 g/ha in assay [7] (250 g ai/ha) was determined as 40%; in assay [8] (250 g ai/ha), 10%; in assay [9] (250 g ai/ha), 60%; in assay [10] (setting [13]), 70%; in [11] (setting [13]) it was 100%.
